In patent publication US11944623B2, “Modulators of Kv3 channels to treat pain” (Autifony Therapeutics Limited, priority 2015, dated 2024):

Experiments:
[1] = system: rat model of neuropathic pain; assay: Neuropathic pain model (partial ligation of the sciatic nerve): paw withdrawal to mechanical pressure and cold (10° C.), general observations; type: in vivo; settings: for changes in contralateral paw withdrawals and latencies: just attained significance at 3 hours on mechanical
Description: (§1) The efficacy of Compounds 1, 2, 3 and 4 was investigated using rat models of neuropathic and/or persistent inflammatory pain.
(§2) Subjects comprised male, Wistar Hanover rats, 6 animals per group (225±2 g for Compound 1 studies and Compound 2 studies; 214±1 g for Compound 3 studies; 236±1 g for Compound 4 studies).
(§3) Vehicle (12% Captisol®; 0.5% w/v HPMC and 0.1% w/v Tween-80; 5 ml/kg via the intraperitoneal route) was prepared using autoclaved deionized water not more than one week prior to use.
(§4) The details of the studies performed are outlined in Table 1.
(§5) The control for the neuropathic pain model was lamotrigine, administered at 30 mg/kg via oral delivery. The control for the inflammatory pain model was diclofenac, administered at 30 mg/kg via oral delivery. Statistical analysis was performed using one-way ANOVA, and comparisons were performed with time-matched vehicle group using Tukey's HSD test wherein * p<0.05, ** p<0.01, *** p<0.001.
(§6) Treatment groups were randomised and blinded. Groups of 6 rats were used.
Neuropathic pain was induced by partial ligation of the sciatic nerve. Briefly, the rats were anaesthetised (isoflurane/O2 inhalation), the left sciatic nerve exposed at mid-thigh level through a small incision and ⅓ to ½ of the nerve thickness tightly ligated within a 7.0 silk suture. The wound was closed with surgical glue. Animals were allowed to recover and tested 12-15 days following surgery.
Withdrawal thresholds or latencies were measured on both the ipsilateral (ligated) and contralateral (non-ligated) paws, prior to (predose) and then up to 24 h following drug or vehicle administration.
Pre-dose behavioural measurements were obtained by measuring paw withdrawals 14 days following nerve ligation; before the initiation of drug treatment. Following treatment, further readings were taken at 1, 3, 6 and 24 hour after administration.
(§7) Mechanical hyperalgesia was examined in a model of neuropathic pain by measuring paw withdrawal thresholds (PWT) to increasing mechanical force applied to the dorsal surface of the rat paw using an Analgesymeter (Ugo-Basile, Milan) equipped with a wedge-shaped probe (area 1.75 mm^2). Cut-off was set at 250 g and the end-point was taken as withdrawal of the hind paw. Both ipsilateral and contralateral paw withdrawal readings were taken.
(§8) Cold sensitivity was assessed using a commercially available cold-plate (Ugo Basile, Milan). The cold plate was allowed to stabilize for 5 minutes at the set temperature prior to testing. Paw withdrawal latencies (PWL) were determined with the cold-plate set at 10° C. The animals were lightly restrained and each hind paw in turn placed onto the surface of the cold-plate. The end point was taken as the withdrawal of the paw and recorded as the withdrawal latency for the ipsilateral and the contralateral paw. A maximum cut-off of 30 seconds was used for each paw.
(§9) In addition to behavioural pain readings, each rat was observed throughout the study for changes in general behaviour.
(§10) Data were expressed as withdrawal threshold (g) or withdrawal latencies (s) and percentage reversals calculated according to the following formula: […]
(§11) Statistical analysis was carried out on withdrawal threshold readings using ANOVA with repeated measures followed by Tukey's HSD test. The level for statistical significance was set as p<0.05.

[2] = system: rat model of persistent inflammatory pain; assay: Persistent inflammatory pain model (intraplantar FCA): paw withdrawal to mechanical pressure and cold (10° C.), general observations; type: in vivo; settings: for rats with noticeable flaccidity: 1-6h post-dose; for rats more alert and more vocal than fellow cage-mates: 1-6 h post-dose
Description: as §1, §2, §3, §4, §5, §6
Mechanical hyperalgesia was examined in a model of persistent inflammatory pain. The hyperalgesia was induced by an intraplantar injection (25 μl) of Freund's Complete Adjuvant (FCA) into the left hind paw.
To assess the effect of the test compound, paw withdrawal thresholds or latencies were measured on both the ipsilateral (FCA-injected) and contralateral (non-injected) paws, prior to (naïve) and 24 hours following FCA injection (predose), and then at 1, 3, 6 and 24 hours after drug or vehicle administration.
as §7, §8, §9, §10, §11

Human Nav1.7 channels = target: T1, Human Nav1.7 channels (Homo sapiens, UniProt Q15858); assay: Nav1.7 QPatch assay; type: cell-based; settings: 10 µM concentration (N=3)
T1 construct: expressed in transfected cells
Description: Human Nav1.7 channels were stably expressed in a HEK293 cell line. Electrophysiological recordings were made at room temperature using an automated patch clamp platform (QPatch, Sophion Biosciences).
The QPatch assay was carried out at room temperature using the QPatch platform (Sophion). On the day of the experiment cells were cultured according to standard cell preparation for QPatch. Internal and external physiological solutions were freshly prepared prior to the assay. The standard extracellular solution contained 145 mM NaCl, 4 mM KCl, 2 mM CaCl2, 2 mM MgCl2, 10 mM HEPES and 10 mM glucose; the pH was adjusted to 7.4 with NaOH, and the osmolarity measured as 314mOsm/L. The standard intracellular solution contained 140 mM CsF, 10 mM NaCl, 5 mM CsOH, 1 mM EGTA, 10 mM HEPES; the pH was adjusted to 7.25 with CsOH, and the osmolarity measured as 293mOsm/L.
A series of 40 voltage pulses (from −120 mV to 0 mV, 2.4 ms long at 117 Hz) were applied every 60 s in control (twice), compound (five times), standard blocker (twice) and washout (twice). The % inhibition values were calculated by normalising the data relative to the 1st pulse (P1) and by calculating the ratio between the 40th pulse versus the 1st pulse (P40/1). Series resistance and quality of seals were monitored during the experiments. Sophion QPatch Assay Software 5.0 was used to analyse and plot all the graphs. 10 μM of the test compound was applied followed by 1 μM TTX (standard blocker), followed by saline (washout). Compounds were diluted in physiological solutions at the required concentration with a maximum of 0.1% of DMSO.

[3] = target: T2, human BK (hKCa1.1/β1) potassium channel (Homo sapiens, UniProt Q12791); assay: BK QPatch HT assay; type: cell-based; settings: 10 µM concentration (N=3)
T2 construct: expressed in transfected cells; host or cells: CHO cell line
Description: The effects of compounds on cloned human BK (hKCa1.1/β1) potassium channel (encoded by the human KCNMA1 and KCNMB1 genes) were examined in a CHO cell line using a QPatch HT® (Sophion Bioscience A/S, Denmark) assay. Onset and steady-state inhibition of hBK currents were measured using a voltage pulse pattern with a depolarizing test pulse (+100 mV amplitude, 200 ms duration) at 10 s intervals from a holding potential of −80 mV. The peak amplitude of the delayed outward current was measured for each test pulse. The compounds were evaluated at 10 μM in three cells for each compound, after a 3 minute compound application. The steady state inhibition produced by each compound was calculated.

[4] = Study 1 of each compound (Table 1), 60 mg/kg i.p., 3 hours post-dose
[5] = Study 1 of each compound, 30 mg/kg i.p., 3 hours post-dose
[6] = Study 1 of each compound, 60 mg/kg i.p.
[7] = Study 2, 10 mg/kg i.p., 3 hours post-dose
[8] = Study 2, 30 mg/kg i.p., 3 hours post-dose
[9] = Study 2, 60 mg/kg i.p., 3 hours post-dose
[10] = 10 mg/kg i.p., 3 hours post-dose
[11] = 30 mg/kg i.p., 3 hours post-dose
[12] = 60 mg/kg i.p., 1 hour post-dose
[13] = Study 1, 30 mg/kg i.p., 1 hour post-dose
[14] = Study 1, 60 mg/kg i.p., 1 hour post-dose
[15] = 60 mg/kg i.p., 3 hours post-dose

T2 sequence (Q12791 whole entry): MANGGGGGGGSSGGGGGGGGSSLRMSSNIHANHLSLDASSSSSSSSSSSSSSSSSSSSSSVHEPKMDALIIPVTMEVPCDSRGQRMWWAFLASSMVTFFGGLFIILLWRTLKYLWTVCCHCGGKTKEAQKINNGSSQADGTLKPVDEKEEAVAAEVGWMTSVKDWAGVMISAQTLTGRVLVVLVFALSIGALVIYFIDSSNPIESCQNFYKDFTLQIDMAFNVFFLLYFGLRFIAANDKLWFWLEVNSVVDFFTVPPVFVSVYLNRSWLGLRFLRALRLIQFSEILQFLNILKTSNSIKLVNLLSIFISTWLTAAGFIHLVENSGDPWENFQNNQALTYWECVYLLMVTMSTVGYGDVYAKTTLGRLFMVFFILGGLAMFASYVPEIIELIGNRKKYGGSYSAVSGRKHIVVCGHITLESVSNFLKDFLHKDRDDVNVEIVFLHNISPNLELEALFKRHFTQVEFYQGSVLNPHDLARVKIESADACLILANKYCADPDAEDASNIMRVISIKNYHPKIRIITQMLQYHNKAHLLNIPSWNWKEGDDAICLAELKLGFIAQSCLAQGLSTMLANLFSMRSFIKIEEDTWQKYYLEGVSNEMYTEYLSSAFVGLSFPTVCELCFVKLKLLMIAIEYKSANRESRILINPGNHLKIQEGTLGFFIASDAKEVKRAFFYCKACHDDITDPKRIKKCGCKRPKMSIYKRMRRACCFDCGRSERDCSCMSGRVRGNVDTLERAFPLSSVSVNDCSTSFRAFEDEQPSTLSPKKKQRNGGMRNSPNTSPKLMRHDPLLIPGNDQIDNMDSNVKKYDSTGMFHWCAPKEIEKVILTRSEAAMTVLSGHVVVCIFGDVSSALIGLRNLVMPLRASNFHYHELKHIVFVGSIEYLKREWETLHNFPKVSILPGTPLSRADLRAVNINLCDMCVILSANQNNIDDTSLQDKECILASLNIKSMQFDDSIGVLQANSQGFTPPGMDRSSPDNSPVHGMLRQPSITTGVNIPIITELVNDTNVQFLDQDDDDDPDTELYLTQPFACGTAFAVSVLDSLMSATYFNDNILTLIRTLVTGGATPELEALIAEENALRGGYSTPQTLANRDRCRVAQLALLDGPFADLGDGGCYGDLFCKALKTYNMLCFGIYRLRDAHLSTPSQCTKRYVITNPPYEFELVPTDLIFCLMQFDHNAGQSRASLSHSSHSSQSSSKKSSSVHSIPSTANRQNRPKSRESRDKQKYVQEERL
T2 sequence (Q16558 whole entry partner): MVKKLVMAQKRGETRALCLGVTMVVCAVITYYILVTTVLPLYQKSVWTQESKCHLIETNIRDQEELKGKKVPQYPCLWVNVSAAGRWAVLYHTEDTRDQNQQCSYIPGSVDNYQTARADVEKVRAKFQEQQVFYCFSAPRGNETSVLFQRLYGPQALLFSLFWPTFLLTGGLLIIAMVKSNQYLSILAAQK
T1 sequence (Q15858 whole entry): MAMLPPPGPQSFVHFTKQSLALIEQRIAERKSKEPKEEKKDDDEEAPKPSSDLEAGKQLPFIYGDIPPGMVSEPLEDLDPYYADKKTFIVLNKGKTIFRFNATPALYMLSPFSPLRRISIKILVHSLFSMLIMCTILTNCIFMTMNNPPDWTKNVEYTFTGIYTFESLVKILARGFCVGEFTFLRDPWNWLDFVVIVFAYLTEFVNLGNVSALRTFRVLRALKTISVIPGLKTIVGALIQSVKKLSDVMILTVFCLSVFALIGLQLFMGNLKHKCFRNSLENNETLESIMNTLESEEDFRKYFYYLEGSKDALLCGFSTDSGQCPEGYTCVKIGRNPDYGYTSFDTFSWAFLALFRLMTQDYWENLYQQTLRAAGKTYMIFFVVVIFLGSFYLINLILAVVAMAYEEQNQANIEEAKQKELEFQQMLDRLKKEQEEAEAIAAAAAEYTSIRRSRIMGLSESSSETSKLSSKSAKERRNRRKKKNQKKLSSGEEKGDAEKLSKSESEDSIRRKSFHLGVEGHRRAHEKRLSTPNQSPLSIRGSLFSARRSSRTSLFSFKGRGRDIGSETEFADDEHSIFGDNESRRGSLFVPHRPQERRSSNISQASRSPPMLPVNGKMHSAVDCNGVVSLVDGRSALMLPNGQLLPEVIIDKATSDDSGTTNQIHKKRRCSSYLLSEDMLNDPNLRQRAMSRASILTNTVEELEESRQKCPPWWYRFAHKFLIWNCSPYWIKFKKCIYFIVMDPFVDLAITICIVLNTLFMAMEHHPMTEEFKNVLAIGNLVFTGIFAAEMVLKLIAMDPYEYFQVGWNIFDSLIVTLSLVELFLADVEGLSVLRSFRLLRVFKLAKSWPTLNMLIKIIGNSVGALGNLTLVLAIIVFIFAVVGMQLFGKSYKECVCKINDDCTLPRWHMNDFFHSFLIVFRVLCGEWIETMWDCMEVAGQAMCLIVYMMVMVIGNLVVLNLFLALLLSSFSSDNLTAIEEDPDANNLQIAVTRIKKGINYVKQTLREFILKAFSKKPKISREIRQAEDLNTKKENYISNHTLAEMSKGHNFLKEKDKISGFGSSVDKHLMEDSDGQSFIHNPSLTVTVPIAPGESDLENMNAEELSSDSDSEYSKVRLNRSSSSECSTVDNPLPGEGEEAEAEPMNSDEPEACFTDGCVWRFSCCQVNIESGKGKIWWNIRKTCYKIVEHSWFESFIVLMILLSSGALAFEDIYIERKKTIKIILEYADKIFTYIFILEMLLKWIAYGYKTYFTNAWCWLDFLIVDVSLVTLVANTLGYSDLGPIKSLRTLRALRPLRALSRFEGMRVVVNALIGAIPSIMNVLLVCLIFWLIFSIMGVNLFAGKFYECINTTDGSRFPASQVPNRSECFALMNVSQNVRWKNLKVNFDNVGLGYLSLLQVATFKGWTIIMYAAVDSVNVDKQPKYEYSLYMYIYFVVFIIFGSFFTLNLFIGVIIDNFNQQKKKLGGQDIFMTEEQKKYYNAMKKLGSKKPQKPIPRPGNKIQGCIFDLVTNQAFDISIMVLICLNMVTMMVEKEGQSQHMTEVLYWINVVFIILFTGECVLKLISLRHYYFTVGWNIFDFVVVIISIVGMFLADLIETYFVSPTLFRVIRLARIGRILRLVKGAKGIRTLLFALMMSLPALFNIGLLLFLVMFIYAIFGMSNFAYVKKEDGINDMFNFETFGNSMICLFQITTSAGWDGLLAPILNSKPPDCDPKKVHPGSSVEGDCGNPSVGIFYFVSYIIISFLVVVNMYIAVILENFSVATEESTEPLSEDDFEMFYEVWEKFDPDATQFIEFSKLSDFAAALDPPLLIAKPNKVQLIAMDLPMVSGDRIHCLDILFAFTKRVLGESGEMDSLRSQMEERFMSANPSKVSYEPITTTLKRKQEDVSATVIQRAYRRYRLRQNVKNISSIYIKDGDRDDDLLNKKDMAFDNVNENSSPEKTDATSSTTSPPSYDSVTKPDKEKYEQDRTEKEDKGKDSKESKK

SMILES | reversal of cold sensitivity [1, 4] [%] | reversal of mechanical sensitivity [1, 4] [%] | reversal of cold sensitivity [1, 5] [%] | efficacy at 6 hours post-dose [1, 6] | reversal of cold sensitivity [1, 7] [%] | reversal of mechanical sensitivity [1, 7] [%] | reversal of cold sensitivity [1, 8] [%] | reversal of mechanical sensitivity [1, 8] [%] | reversal of cold sensitivity [1, 9] [%] | reversal of mechanical sensitivity [1, 9] [%] | changes in contralateral paw withdrawals and latencies ([1]; Study 2) | reversal of mechanical sensitivity [2, 10] [%] | reversal of cold sensitivity [2, 11] [%] | reversal of cold sensitivity [2, 12] [%] | effect on Nav1.7-mediated currents (Human Nav1.7 channels) | effect on BK channel currents [3] | behavioural changes in the rats (general observations) ([1]; Study 1 of each compound) | reversal of cold sensitivity [2, 15] [%] | reversal of mechanical sensitivity [2, 15] [%] | changes in contralateral paw withdrawals/latencies ([2]; all doses) | other results
Cc1ccc(Oc2ncc(N3C(=O)NC(C)(C)C3=O)cn2)c2c1OCC21CC1 [Compound 1, 5,5-dimethyl-3-[2-(7-methylspiro[2H-benzofuran-3,1′-cyclopropane]-4-yl)oxypyrimidin-5-yl]imidazolidine-2,4-dione] | 125 | 68 | 52 | still efficacious | 39 | 31 | 68 | 73 | 76 | 81 | small changes | 64 | 65 | 92 | No significant effect | No significant effect |  |  |  |  | statistical activity of the lower dose ([1]; Study 1, 30 mg/kg i.p.): only statistically active against mechanical hyperalgesia; reversal of mechanical sensitivity ([1]; Study 1, 30 mg/kg i.p., 3 hours post-dose): 51%; flaccidity (general observation) ([1]; Study 1, 1 and 3 hour post-dose, both doses): slightly flaccid; rats with mild flaccidity ([1]; Study 2, 30 mg/kg i.p.): 1/6; rats with mild flaccidity ([1]; Study 2, 60 mg/kg i.p.): 2/6; reversal of cold sensitivity [2, 10]: 45%; rats with noticeable flaccidity ([2]; 30 mg/kg i.p.): 2/6; reversal of mechanical sensitivity ([2]; 30 mg/kg i.p., 1 hour post-dose): 74%; animals showing the contralateral paw effect ([2]; 60 mg/kg i.p.): 3/6; changes in contralateral paw withdrawals/latencies ([2]; 60 mg/kg i.p.): Pronounced increases; rats with noticeable flaccidity ([2]; 60 mg/kg i.p.): 4/6; reversal of mechanical sensitivity [2, 12]: 92%; reversal of cold sensitivity ([2]; 60 mg/kg i.p., 6h post-dose): 45%; reversal of mechanical sensitivity ([2]; 60 mg/kg i.p., 6h post-dose): 45%
CC[C@@]1(C)NC(=O)N(c2cnc(Oc3ccc(C)c(OC(F)(F)F)c3)nc2)C1=O [Compound 2, (5R)-5-ethyl-5-methyl-3-[2-({4-methyl-3-[(trifluoromethyl)oxy]phenyl}oxy)-5-pyrimidinyl]-2,4-imidazolidinedione] |  |  | 55 |  | 35 | 31 | 70 | 72 | 95 | 81 | small changes | 46 | 58 | 96 | No significant effect | No significant effect | no apparent behavioural changes | 81 | 67 | No changes | reversal of cold sensitivity [1, 13]: 42%; reversal of mechanical sensitivity [1, 13]: 53%; reversal of cold sensitivity [1, 14]: 71%; reversal of mechanical sensitivity [1, 14]: 47%; duration of efficacy ([1]; Study 1, both doses (30 and 60 mg/kg i.p.)): efficacious at 3 hours by not by 6 hours post-dose; behavioural changes in the rats (general observations) ([1]; Study 2): no apparent behavioural changes; behavioural changes in the rats (general observations) ([2]; rat, in vivo): no apparent behavioural changes
Cc1ccc(Oc2ccc(-n3c(C)n[nH]c3=O)cn2)c2c1OCC21CC1 [Compound 3, 5-methyl-4-{6-[(7-methylspiro[1-benzofuran-3,1′-cyclopropan]-4-yl)oxy]pyridin-3-yl}-2,4-dihydro-3H-1,2,4-triazol-3-one] | 52 | 46 |  | activity was still evident |  |  |  |  |  |  |  |  |  |  | No significant effect | No significant effect | no behavioural changes noted | 51 | 67 | no significant changes | statistical significance against mechanical and cold hyperalgesia ([1]; Compound 3 neuropathic study, 60 mg/kg i.p.): attained statistical significance; changes in contralateral paw withdrawals/latencies ([1]; Compound 3 neuropathic study, 30 and 60 mg/kg i.p.): no significant changes; rats more alert and more vocal than fellow cage-mates ([2]; 30 mg/kg group): 4/6; rats more alert and more vocal than fellow cage-mates ([2]; 60 mg/kg group): 1/6; doses producing a reversal of mechanical or cold sensitivity ([2]; 10, 30 and 60 mg/kg i.p. tested): Only the top dose; reversal at 1 hour post-dose ([2]; 1 hour post-dose): little reversal evident; activity at 6 hours post-dose ([2]; 6 hours post-dose): activity still evident
